# From patent US7498311B2, “Treatment of migraine” (New England Medical Center Hospitals, Inc., priority 1995, dated 2009)
# System: migraine episodes in epileptic patients
# Test: Anti-migraine activity in epileptic patients (two case reports, daily topiramate)
# Assay type: in vivo, human
# Excerpt: Patient 1, an epileptic, suffered from complex partial seizures and frequent episodes of migraine, some of which were temporally related to their seizures. Seizures and migraines were incompletely responsive to large doses of calcium channel blockers added to their anti-epileptic drug regimen. Patient 2 suffered from complex partial seizures and frequent, severe migraine episodes, requiring regular use of sumatripan. Patient 1 took topiramate daily for 18 months. Patient 2 took topiramate daily for 10 months.
compound,measurement,setting,value
"CC1(C)O[C@@H]2[C@@H](CO[C@@]3(COS(N)(=O)=O)OC(C)(C)O[C@@H]23)O1 [topiramate, 2,3:4,5-bis-O-(1-methylethydine)-β-D-fructopyranose sulfamate]",improvement in migrainous episodes,"Patient 1 (epileptic, complex partial seizures, frequent migraine), 600 mg/d",substantial improvement in migrainous episodes
same,migrainous episodes,"Patient 1, after taking 800 mg/d, verapamil, nimodipine and cimetidine withdrawn",had not experienced any migrainous episodes
same,adverse effects,"Patient 1, daily for 18 months",did not experience any adverse effects
same,control of migraine episodes,"Patient 1, daily for 18 months, except for one migrainous aura, all calcium channel blockers withdrawn",nearly completely controlled
same,improvement of migraine headaches,"Patient 2 (epileptic, complex partial seizures, frequent severe migraine), 400 mg/d",substantial improvement of their migraine headaches
same,frequency of migraine headaches,"Patient 2, after taking 200 mg/d",substantially less frequent migraine headaches
same,migraine status after the sixth month,"Patient 2, daily for 10 months",migraine-free thereafter until the tenth month
same,migraine episodes in the fifth and sixth months of use,"Patient 2, during brief cessation of their propanolol therapy",several episodes of basilar migraine without headache
same,use of sumatriptan rescue medication,"Patient 2, once taking 300 mg/d",eliminating the average use of 2 administrations of sumatriptan per week
